From patent US7897602B2, “Indolinone compounds as kinase inhibitors” (Development Center for Biotechnology, priority 2009, dated 2011)

Tests used:
Format in all cases: biochemical
[1] = molecular target: T1, PDGFR-β kinase (Homo sapiens, UniProt P09619); test: PDGFR-β kinase assay (33P incorporation into Poly(Glu-Tyr)); conditions: 500 nM test compound
T1 construct: recombinant N-terminal 6×His-tagged PDGFR-β kinase domain construct expressed by baculovirus; 6xHis (N); made in house
Protocol: Inhibition of PDGFR-β kinase activity by compounds disclosed herein was quantified by measuring the amount of [^33P] incorporated into the substrate in the presence of a test compound. Briefly, a reaction mixture of 25 μL final volume containing 55 ng of PDGFR-β kinase (obtained by purifying recombinant N-terminal 6×His-tagged PDGFR-β kinase domain construct expressed by baculovirus), 2.5 μg of the substrate (Poly (Glu-Tyr, 4:1, Sigma)), kinase reaction buffer (20 mM MOPS pH 7.0, 1 mM EDTA, 5% glycerol, 0.01% Brij-35, 0.1% β-mercaptoethanol, 1 mg/mL BSA, 2 mM MnCl2, 30 μM ATP, 0.1 μCi per well [^33P]-γ-ATP (2,500-3,000 Ci/mmol)), and a test compound (500 nM, diluted with 4% DMSO) or DMSO (as the control) was incubated at 30° C. for 30 minutes. The reaction was stopped by adding 5 μL of 3% phosphoric acid solution. The resultant reaction solution was then harvested onto a filter plate (UniFilter-96 GF/B, PerkinElmer), washed 20 times for 5 min with d.d. H2O, and followed by the addition of 30 μL of MicroScint™-20 Cocktail (PerkinElmer). The plate was then sealed and counted using a TopCount scintillation detector (PerkinElmer). The percentage of inhibition rate of the test compound was calculated by dividing the retained radioactivity of the test sample with the retained radioactivity of the control sample and shown in Table 3.

[2] = molecular target: T2, Aurora A kinase (Homo sapiens, UniProt O14965); test: Aurora A kinase assay ([γ-33P]ATP, CHOCKtide substrate); conditions: for inhibition at 1 µM: 1.0 μM test compound
T2 construct: purchased Upstate
T2 sequence (O14965 1-403): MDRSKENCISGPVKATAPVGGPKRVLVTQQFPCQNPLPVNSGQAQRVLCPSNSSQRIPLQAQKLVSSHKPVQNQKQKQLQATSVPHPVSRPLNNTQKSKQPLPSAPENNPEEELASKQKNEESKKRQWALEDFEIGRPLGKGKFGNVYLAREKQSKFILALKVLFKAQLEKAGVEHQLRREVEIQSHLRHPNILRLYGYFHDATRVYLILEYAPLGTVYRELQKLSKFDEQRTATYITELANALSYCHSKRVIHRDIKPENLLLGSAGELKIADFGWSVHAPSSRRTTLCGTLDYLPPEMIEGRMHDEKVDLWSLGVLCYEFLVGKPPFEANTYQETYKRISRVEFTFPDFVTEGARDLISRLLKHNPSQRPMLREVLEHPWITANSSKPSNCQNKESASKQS
How it was run: (§1)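 Recombinant Aurora A (1 ng) or Aurora B (2.5 ng) incubated with test compound, CHOCKtide (1 μg) and [γ-33P]ATP/ATP at 10 μM (Aurora A) or 40 μM (Aurora B), 30 min at 33 °C. Stopped with phosphoric acid; filter-bound 33P counted; IC50 = half-maximal inhibition.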

[3] = molecular target: T3, Aurora B kinase (Homo sapiens, UniProt Q96GD4); test: Aurora B kinase assay ([γ-33P]ATP, CHOCKtide substrate); conditions: for inhibition at 1 µM: 1.0 μM test compound
T3 construct: purchased Cell signaling
How it was run: as §1

[4] = molecular target: T4, c-Met kinase (Homo sapiens, UniProt P08581); test: c-Met kinase assay (33P incorporation into Poly(Glu-Tyr)); conditions: 500 nM test compound
T4 construct: recombinant N-terminal 6×His-tagged c-Met kinase domain construct expressed from baculovirus; 6xHis (N); made in house
How it was run: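 Recombinant N-terminal 6×His-tagged c-Met kinase domain (baculovirus-expressed, 5 ng) acted on Poly(Glu-Tyr) 4:1 with 100 μM ATP plus [33P]-γ-ATP in MOPS pH 7.0 buffer, 30 min at 30° C. Compound was at 500 nM. Filter-retained radioactivity was compared with the DMSO control to give percent inhibition.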

T3 sequence (Q96GD4 whole entry): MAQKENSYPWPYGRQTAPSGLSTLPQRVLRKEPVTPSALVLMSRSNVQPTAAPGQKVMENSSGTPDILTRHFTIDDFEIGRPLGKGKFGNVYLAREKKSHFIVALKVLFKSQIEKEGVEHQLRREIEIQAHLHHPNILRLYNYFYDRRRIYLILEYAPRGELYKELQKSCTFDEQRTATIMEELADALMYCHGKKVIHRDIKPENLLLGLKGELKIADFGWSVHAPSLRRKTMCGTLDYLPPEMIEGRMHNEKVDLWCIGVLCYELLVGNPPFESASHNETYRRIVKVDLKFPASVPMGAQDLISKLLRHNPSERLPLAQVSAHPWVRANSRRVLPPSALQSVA
T4 sequence (P08581 1078-1345 limits assumed): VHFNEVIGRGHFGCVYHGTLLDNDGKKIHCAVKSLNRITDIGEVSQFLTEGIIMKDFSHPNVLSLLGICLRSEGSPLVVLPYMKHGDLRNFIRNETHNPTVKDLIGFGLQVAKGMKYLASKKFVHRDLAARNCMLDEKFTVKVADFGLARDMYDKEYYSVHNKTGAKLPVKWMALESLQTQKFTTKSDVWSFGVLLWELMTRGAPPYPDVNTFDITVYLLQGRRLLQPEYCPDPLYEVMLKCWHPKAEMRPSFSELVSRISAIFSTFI
T1 sequence (P09619 600-962 limits assumed): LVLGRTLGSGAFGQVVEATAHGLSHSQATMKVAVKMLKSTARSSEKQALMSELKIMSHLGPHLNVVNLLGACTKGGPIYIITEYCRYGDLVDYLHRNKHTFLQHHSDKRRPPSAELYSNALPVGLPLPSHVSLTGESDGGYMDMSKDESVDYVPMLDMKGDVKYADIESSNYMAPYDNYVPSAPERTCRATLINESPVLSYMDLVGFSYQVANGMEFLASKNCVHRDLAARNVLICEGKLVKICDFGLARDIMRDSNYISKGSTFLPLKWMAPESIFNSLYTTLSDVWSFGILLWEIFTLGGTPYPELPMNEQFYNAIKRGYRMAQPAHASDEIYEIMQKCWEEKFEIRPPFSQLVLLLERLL

## CCOC(=O)CCc1c(/C=C2\C(=O)Nc3cc(F)ccc32)[nH]c2c1C(=O)CCC2 [DCB-70122, (Z)-6-fluoro-3-((3-(3-ethoxy-3-oxopropyl)-4-oxo-4,5,6,7-tetrahydro-1H-indol-2-yl)methylene)indolin-2-one]
[1]
  inhibition at 0.5 µM: 64.3%
[2]
  inhibition at 1 µM: 34.1%
[3]
  inhibition at 1 µM: 8.3%
[4]
  inhibition at 0.5 µM: 19.1%

## CNS(=O)(=O)c1ccc2c(c1)/C(=C/c1[nH]c3c(c1CCC(=O)O)C(=O)CCC3)C(=O)N2 [DCB-70065, (Z)-5-(N-methylsulfamoyl)-3-((3-carboxyethyl-4-oxo-4,5,6,7-tetrahydro-1H-indol-2-yl)methylene)indolin-2-one]
[1]
  inhibition at 0.5 µM: 17.3%
[2]
  IC50: 30.8 nM
  inhibition at 1 µM: 97.3%
[3]
  inhibition at 1 µM: 25.6%
[4]
  inhibition at 0.5 µM: 29.1%

## O=C(O)CCc1c(/C=C2\C(=O)Nc3ccc(S(=O)(=O)Cc4ccc(F)cc4)cc32)[nH]c2c1C(=O)CCC2 [DCB-70072, (Z)-5-(4-fluorobenzylsulfonyl)-3-((3-carboxyethyl-4-oxo-4,5,6,7-tetrahydro-1H-indol-2-yl)methylene)indolin-2-one]
[1]
  inhibition at 0.5 µM: 34.5%
[2]
  IC50: 443 nM
  inhibition at 1 µM: 71.1%
[3]
  inhibition at 1 µM: 15.5%
[4]
  inhibition at 0.5 µM: 62.8%

## CCOC(=O)CCc1c(/C=C2\C(=O)Nc3cc(-c4ccc(O)cc4)ccc32)[nH]c2c1C(=O)CCC2 [DCB-70066, (Z)-6-(4-hydroxyphenyl)-3-((3-(3-ethoxy-3-oxopropyl)-4-oxo-4,5,6,7-tetrahydro-1H-indol-2-yl)methylene)indolin-2-one]
[1]
  inhibition at 0.5 µM: 85.4%
[2]
  inhibition at 1 µM: 40.1%
[3]
  inhibition at 1 µM: 25.3%
[4]
  inhibition at 0.5 µM: 15.2%

## CN1CCN(C(=O)CCc2c(/C=C3\C(=O)Nc4ccc(S(=O)(=O)N5CCCC5)cc43)[nH]c3c2C(=O)CCC3)CC1 [DCB-70120, (Z)-3-((3-(3-(4-methylpiperazin-l-yl)-3-oxopropyl)-4-oxo-4,5,6,7-tetrahydro-1H-indol-2-yl)methylene)-5-(pyrrolidin-1-ylsulfonyl)indolin-2-one]
[1]
  inhibition at 0.5 µM: 7.6%
[2]
  inhibition at 1 µM: 50.5%
[3]
  inhibition at 1 µM: 21.5%
[4]
  inhibition at 0.5 µM: 10%

## NS(=O)(=O)c1ccc2c(c1)/C(=C/c1[nH]c3c(c1CCC(=O)O)C(=O)CCC3)C(=O)N2 [DCB-70095, (Z)-5-sulfamoyl-3-((3-carboxyethyl-4-oxo-4,5,6,7-tetrahydro-1H-indol-2-yl)methylene)indolin-2-one]
[1]
  inhibition at 0.5 µM: 36.2%
[2]
  IC50: 61.2 nM
  inhibition at 1 µM: 94.3%
[3]
  inhibition at 1 µM: 34.1%
[4]
  inhibition at 0.5 µM: 16%

## O=C(O)CCc1c(/C=C2\C(=O)Nc3ccc(NC(=O)c4ccc(F)cc4)cc32)[nH]c2c1C(=O)CCC2 [DCB-70076, (Z)-5-(4-fluorobenzamido)-3-((3-carboxyethyl-4-oxo-4,5,6,7-tetrahydro-1H-indol-2-yl)methylene)indolin-2-one]
[1]
  inhibition at 0.5 µM: 26.9%
[2]
  inhibition at 1 µM: 40.7%
[3]
  inhibition at 1 µM: 7.4%
[4]
  inhibition at 0.5 µM: 21.8%

## CC(=O)Nc1ccc2c(c1)/C(=C/c1[nH]c3c(c1CCC(=O)O)C(=O)CCC3)C(=O)N2 [DCB-70104, (Z)-5-acetamido-3-((3-carboxyethyl-4-oxo-4,5,6,7-tetrahydro-1H-indol-2-yl)methylene)indolin-2-one]
[1]
  inhibition at 0.5 µM: 27.2%
[2]
  IC50: 252 nM
  inhibition at 1 µM: 83.6%
[3]
  inhibition at 1 µM: 12.8%
[4]
  inhibition at 0.5 µM: 19.7%

## O=C(O)CCc1c(/C=C2\C(=O)Nc3cc(-c4ccc(O)cc4)ccc32)[nH]c2c1C(=O)CCC2 [DCB-70075, (Z)-6-(4-hydroxyphenyl)-3-((3-carboxyethyl-4-oxo-4,5,6,7-tetrahydro-1H-indol-2-yl)methylene)indolin-2-one]
[1]
  inhibition at 0.5 µM: 94.1%
[2]
  IC50: 86.3 nM
  inhibition at 1 µM: 92.4%
[3]
  IC50: 456 nM
  inhibition at 1 µM: 55.8%
[4]
  inhibition at 0.5 µM: 21.8%
